Laboratory results reported in ChEMBL document CHEMBL5214964 (Bioorg Med Chem Lett, 2022).

Experiments:
[1] = in vivo; conditions: rat, plasma, ip, 20 mg/kg
[2] = in vivo; conditions: rat, plasma, ip, 20 mg/kg; remark: listed apart in the source
[3] = in vivo; conditions: rat, plasma, ip, 20 mg/kg; remark: listed apart in the source
[4] = in vivo; conditions: rat, synovial fluid, ip, 20 mg/kg

concentration at 1 h [1]: 115 µM | concentration at 2 h [2]: 85 µM | concentration at 4 h [3]: 57 µM | concentration at 4 h [4]: 3.27 µM
Structure (SMILES): NCCNS(=O)(=O)c1ccc(-c2ccc(CSc3nc4c(c(=O)[nH]3)CCC4)cc2)cc1
